# Data reported in the supplement of paper PMC9663587.
# Key:
# [1] = compound: CCN1CCN(Cc2ccc(Nc3ncc(F)c(-c4cc(F)c5nc(C)n(C(C)C)c5c4)n3)nc2)CC1; experiment: increase in dead-cell fraction, 72 h; higher = more death;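 also: breast cancer cell lines in 384-well plates, stained with Hoechst plus LIVE/DEAD far red dye and imaged, cells above an LDR intensity threshold counted dead, Hoechst-negative corpses included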
# THZ531 = compound: CN(C)C/C=C/C(=O)Nc1ccc(C(=O)N2CCC[C@@H](Nc3ncc(Cl)c(-c4c[nH]c5ccccc45)n3)C2)cc1 [THZ531]; experiment: as above
# Flavopiridol = compound: CN1CC[C@H](c2c(O)cc(O)c3c(=O)cc(-c4ccccc4Cl)oc23)[C@H](O)C1 [Flavopiridol]; experiment: as above
# LEE011/Ribociclib [2] = compound: T1, CN(C)C(=O)c1cc2cnc(Nc3ccc(N4CCNCC4)cn3)nc2n1C1CCCC1 [LEE011/Ribociclib]; experiment: as above
# THZ1 = compound: CN(C)C/C=C/C(=O)Nc1ccc(C(=O)Nc2cccc(Nc3ncc(Cl)c(-c4c[nH]c5ccccc45)n3)c2)cc1 [THZ1]; experiment: as above
# BSJ-03-123 = compound: CC(=O)c1c(C)c2cnc(Nc3ccc(N4CCN(CCOCCOCCOCCNC(=O)COc5cccc6c5C(=O)N(C5CCC(=O)NC5=O)C6=O)CC4)cn3)nc2n(C2CCCC2)c1=O [BSJ-03-123]; experiment: as above
# Neratinib/HKI272 = compound: CCOc1cc2ncc(C#N)c(Nc3ccc(OCc4ccccn4)c(Cl)c3)c2cc1NC(=O)/C=C/CN(C)C [Neratinib/HKI272]; experiment: as above
# YKL-5-124 = compound: C=CC(=O)Nc1ccc(C(=O)Nc2[nH]nc3c2CN(C(=O)N[C@H](CN(C)C)c2ccccc2)C3(C)C)cc1 [YKL-5-124]; experiment: as above
# [3] = compound: CCc1cnn2c(NCc3ccc[n+]([O-])c3)cc(N3CCCC[C@H]3CCO)nc12; experiment: as above
# [4] = compound: CC(=O)c1c(C)c2cnc(Nc3ccc(N4CCNCC4)cn3)nc2n(C2CCCC2)c1=O; experiment: as above
# LEE011/Ribociclib [5] = compound: T1, LEE011/Ribociclib
# Ceritinib/LDK378 = compound: Cc1cc(Nc2ncc(Cl)c(Nc3ccccc3S(=O)(=O)C(C)C)n2)c(OC(C)C)cc1C1CCNCC1 [Ceritinib/LDK378]
# Doxorubicin = compound: COc1cccc2c1C(=O)c1c(O)c3c(c(O)c1C2=O)C[C@@](O)(C(=O)CO)C[C@@H]3O[C@H]1C[C@H](N)[C@H](O)[C@H](C)O1 [Doxorubicin]
# [6] = compound: Cc1nn(C)c(COc2ccc(N3CCN(S(=O)(=O)N(C)C)CC3)cc2)c1-c1cccc2c(CCCOc3cccc4ccccc34)c(C(=O)O)n(CCN3CCOCC3)c12
# Pictilisib/GDC0941 = compound: CS(=O)(=O)N1CCN(Cc2cc3nc(-c4cccc5[nH]ncc45)nc(N4CCOCC4)c3s2)CC1 [Pictilisib/GDC0941]
# [7] = compound: CCc1cnn2c(NCc3ccc[n+]([O-])c3)cc(N3CCCC[C@H]3CCO)nc12
# 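For GR50, 72 h in this document: breast cancer and non-malignant breast epithelial cell lines, Deep Dye Drop or Dye Drop imaging, nine half-log doses, GR normalized to time-zero plates and DMSO-only controls.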
cell line,measurement,setting,value
MCF7,increase in dead-cell fraction,[1]; 0.001 µM,0.0009
same,increase in dead-cell fraction,[1]; 0.003162 µM,0.0022
same,increase in dead-cell fraction,[1]; 0.01 µM,0.0141
same,increase in dead-cell fraction,[1]; 0.03162 µM,0.0241
same,increase in dead-cell fraction,[1]; 0.1 µM,0.0305
same,increase in dead-cell fraction,[1]; 0.3162 µM,0.0363
same,increase in dead-cell fraction,[1]; 1 µM,0.0543
same,increase in dead-cell fraction,[1]; 3.162 µM,0.277
same,increase in dead-cell fraction,[1]; 10 µM,0.373
same,increase in dead-cell fraction,THZ531; 0.0001 µM,0.0003
same,increase in dead-cell fraction,THZ531; 0.0003162 µM,-0.0011
same,increase in dead-cell fraction,THZ531; 0.001 µM,0.0038
same,increase in dead-cell fraction,THZ531; 0.003162 µM,-0.0013
same,increase in dead-cell fraction,THZ531; 0.01 µM,0.0059
same,increase in dead-cell fraction,THZ531; 0.03162 µM,0.0084
same,increase in dead-cell fraction,THZ531; 0.1 µM,0.125
same,increase in dead-cell fraction,THZ531; 0.3162 µM,0.185
same,increase in dead-cell fraction,THZ531; 1 µM,0.355
same,increase in dead-cell fraction,Flavopiridol; 0.0001 µM,-0.0023
same,increase in dead-cell fraction,Flavopiridol; 0.0003162 µM,0.0009
same,increase in dead-cell fraction,Flavopiridol; 0.001 µM,0.0003
same,increase in dead-cell fraction,Flavopiridol; 0.003162 µM,0.0007
same,increase in dead-cell fraction,Flavopiridol; 0.01 µM,0.0049
same,increase in dead-cell fraction,Flavopiridol; 0.03162 µM,0.0017
same,increase in dead-cell fraction,Flavopiridol; 0.1 µM,0.0144
same,increase in dead-cell fraction,Flavopiridol; 0.3162 µM,0.257
same,increase in dead-cell fraction,Flavopiridol; 1 µM,0.183
same,increase in dead-cell fraction,LEE011/Ribociclib [2]; 0.001 µM,0.0006
same,increase in dead-cell fraction,LEE011/Ribociclib [2]; 0.003162 µM,0.0004
same,increase in dead-cell fraction,LEE011/Ribociclib [2]; 0.01 µM,0.0034
same,increase in dead-cell fraction,LEE011/Ribociclib [2]; 0.03162 µM,0.0049
same,increase in dead-cell fraction,LEE011/Ribociclib [2]; 0.1 µM,0.0006
same,increase in dead-cell fraction,LEE011/Ribociclib [2]; 0.3162 µM,0.0139
same,increase in dead-cell fraction,LEE011/Ribociclib [2]; 1 µM,0.0076
same,increase in dead-cell fraction,LEE011/Ribociclib [2]; 3.162 µM,0.0151
same,increase in dead-cell fraction,LEE011/Ribociclib [2]; 10 µM,0.0147
same,increase in dead-cell fraction,THZ1; 0.0001 µM,-0.0005
same,increase in dead-cell fraction,THZ1; 0.0003162 µM,0.0028
same,increase in dead-cell fraction,THZ1; 0.001 µM,0.0017
same,increase in dead-cell fraction,THZ1; 0.003162 µM,0.0005
same,increase in dead-cell fraction,THZ1; 0.01 µM,0.0078
same,increase in dead-cell fraction,THZ1; 0.03162 µM,0.0606
same,increase in dead-cell fraction,THZ1; 0.1 µM,0.196
same,increase in dead-cell fraction,THZ1; 0.3162 µM,0.176
same,increase in dead-cell fraction,THZ1; 1 µM,0.338
same,increase in dead-cell fraction,BSJ-03-123; 0.001 µM,0.0009
same,increase in dead-cell fraction,BSJ-03-123; 0.003162 µM,0.0021
same,increase in dead-cell fraction,BSJ-03-123; 0.01 µM,0.0018
same,increase in dead-cell fraction,BSJ-03-123; 0.03162 µM,0.0017
same,increase in dead-cell fraction,BSJ-03-123; 0.1 µM,0.0038
same,increase in dead-cell fraction,BSJ-03-123; 0.3162 µM,0.0034
same,increase in dead-cell fraction,BSJ-03-123; 1 µM,0.008
same,increase in dead-cell fraction,BSJ-03-123; 3.162 µM,0.0042
same,increase in dead-cell fraction,BSJ-03-123; 10 µM,0.274
same,increase in dead-cell fraction,Neratinib/HKI272; 0.0003162 µM,0
same,increase in dead-cell fraction,Neratinib/HKI272; 0.001 µM,0.0036
same,increase in dead-cell fraction,Neratinib/HKI272; 0.003162 µM,0.0018
same,increase in dead-cell fraction,Neratinib/HKI272; 0.01 µM,0.0034
same,increase in dead-cell fraction,Neratinib/HKI272; 0.03162 µM,0.0035
same,increase in dead-cell fraction,Neratinib/HKI272; 0.1 µM,0.0017
same,increase in dead-cell fraction,Neratinib/HKI272; 0.3162 µM,0.0089
same,increase in dead-cell fraction,Neratinib/HKI272; 1 µM,0.0125
same,increase in dead-cell fraction,Neratinib/HKI272; 3.162 µM,0.164
same,increase in dead-cell fraction,YKL-5-124; 0.001 µM,0.0137
same,increase in dead-cell fraction,YKL-5-124; 0.003162 µM,0.0144
same,increase in dead-cell fraction,YKL-5-124; 0.01 µM,0.0219
same,increase in dead-cell fraction,YKL-5-124; 0.03162 µM,0.0284
same,increase in dead-cell fraction,YKL-5-124; 0.1 µM,0.0263
same,increase in dead-cell fraction,YKL-5-124; 0.3162 µM,0.0411
same,increase in dead-cell fraction,YKL-5-124; 1 µM,0.0356
same,increase in dead-cell fraction,YKL-5-124; 3.162 µM,0.039
same,increase in dead-cell fraction,YKL-5-124; 10 µM,0.203
same,increase in dead-cell fraction,[3]; 0.0001 µM,0.0003
same,increase in dead-cell fraction,[3]; 0.0003162 µM,-0.0006
same,increase in dead-cell fraction,[3]; 0.001 µM,-0.0004
same,increase in dead-cell fraction,[3]; 0.003162 µM,0.0012
same,increase in dead-cell fraction,[3]; 0.01 µM,0.0757
same,increase in dead-cell fraction,[3]; 0.03162 µM,0.319
same,increase in dead-cell fraction,[3]; 0.1 µM,0.272
same,increase in dead-cell fraction,[3]; 0.3162 µM,0.225
same,increase in dead-cell fraction,[3]; 1 µM,0.229
same,increase in dead-cell fraction,[4]; 0.0003162 µM,-0.0006
same,increase in dead-cell fraction,[4]; 0.001 µM,-0.0004
same,increase in dead-cell fraction,[4]; 0.003162 µM,0.002
same,increase in dead-cell fraction,[4]; 0.01 µM,0.0051
same,increase in dead-cell fraction,[4]; 0.03162 µM,0.0099
same,increase in dead-cell fraction,[4]; 0.1 µM,0.0195
same,increase in dead-cell fraction,[4]; 0.3162 µM,0.022
same,increase in dead-cell fraction,[4]; 1 µM,0.0362
same,increase in dead-cell fraction,[4]; 3.162 µM,0.0308
same,"GR50, 72 h",LEE011/Ribociclib [5],0.185 µM
same,"GR50, 72 h",Ceritinib/LDK378,0.344 µM
same,"GR50, 72 h",Doxorubicin,0.0161 µM
same,"GR50, 72 h",[6],> 10 µM
same,"GR50, 72 h",Pictilisib/GDC0941,0.13 µM
same,"GR50, 72 h",[7],0.00831 µM
